Measurements published in BindingDB's records for doi:10.7270/Q2639NCQ (The Scripps Research Institute Molecular Screening Center, 2013).

Target: T1, Mitochondrial peptide methionine sulfoxide reductase (Bos taurus, UniProt P54149)
T1 sequence (P54149 whole entry): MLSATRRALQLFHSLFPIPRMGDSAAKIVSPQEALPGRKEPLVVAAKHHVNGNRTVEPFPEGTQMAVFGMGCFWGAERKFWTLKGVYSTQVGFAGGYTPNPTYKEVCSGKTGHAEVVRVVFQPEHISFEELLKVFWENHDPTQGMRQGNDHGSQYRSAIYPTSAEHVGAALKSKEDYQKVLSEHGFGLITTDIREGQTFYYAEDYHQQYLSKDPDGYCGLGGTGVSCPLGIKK

Compound	IC50 [µM]
COc1cccc(C2=Nc3nnnn3C(c3cccc(OC)c3OC)C2)c1 (stereo unspecified)	> 155
O=C1C(Cl)=C(Nc2ccc3cn[nH]c3c2)C(=O)c2ccccc21	> 155
CCOC(=O)C1CCN(C(=O)c2c(C)oc3c2C(=O)c2ccccc2C3=O)CC1	> 155
O=[N+]([O-])c1cnc(Nc2ccc(Cl)cn2)c([N+](=O)[O-])c1	> 155
CC(Nc1ccc([N+](=O)[O-])cc1[N+](=O)[O-])c1ccccc1 (stereo unspecified)	> 155
Cc1ccc(Nc2ccc(C(F)(F)F)cc2[N+](=O)[O-])cc1	> 155
Nc1nnc(CC(=O)N/N=C/c2ccc(-c3ccccc3)o2)s1	> 155
CC(Sc1ncc(C(F)(F)F)cc1Cl)C(=O)NC(N)=O (stereo unspecified)	> 155
CC(=N)C(C#N)C(=O)CSc1nn(-c2ccc(Cl)cc2)c(=S)s1 (stereo unspecified)	> 155
CC(=O)N1N=C(c2ccncc2)OC1(Cc1ccccc1)Cc1ccccc1	> 155
COc1ccc(/C=N/NC(=O)c2cc3cc(OC)c(OC)cc3[nH]2)cc1	> 155
O=C1N=C(N2C=CC(c3ccncc3)C=C2)C(=CN=NC(=O)c2ccccc2)S1	> 155
c1ccc(-n2nnnc2-n2nnc3ccccc32)cc1 [1-(1-phenyl-1,2,3,4-tetrazol-5-yl)benzotriazole]	> 155
COc1cc(C2C(C(=O)c3sc(C)nc3C)C(=O)C(=O)N2CCN(C)C)cc(OC)c1OC (stereo unspecified) [1-[2-(dimethylamino)ethyl]-3-[(2,4-dimethyl-5-thiazolyl)-oxomethyl]-4-hydroxy-2-(3,4,5-trimethoxyphenyl)-2H-pyrrol-5-one]	> 155
O=C(NC=NOCc1ccc(Cl)cc1Cl)NOCc1ncc(C(F)(F)F)cc1Cl [1-[[3-chloro-5-(trifluoromethyl)-2-pyridinyl]methoxy]-3-[[(2,4-dichlorophenyl)methoxyamino]methylidene]urea]	> 155
CCOc1cc(S(=O)(=O)N(CC)CC)c(OCC)cc1-n1cnnn1 [2,5-diethoxy-N,N-diethyl-4-(1,2,3,4-tetrazol-1-yl)benzenesulfonamide]	> 155
O=C1C(=O)N(CCCn2ccnc2)C(c2cccc(Br)c2)C1C(=O)c1ccco1 (stereo unspecified) [2-(3-bromophenyl)-3-[2-furanyl(oxo)methyl]-4-hydroxy-1-[3-(1-imidazolyl)propyl]-2H-pyrrol-5-one]	> 155
Cc1ccnc(N2C(=O)c3cccc4c([N+](=O)[O-])ccc(c34)C2=O)c1 [2-(4-Methyl-pyridin-2-yl)-6-nitro-benzo[de]isoquinoline-1,3-dione]	> 155
Cc1c(OCC(N)=O)ccc2c(-c3ccccc3)cc(=O)oc12 [2-(8-methyl-2-oxidanylidene-4-phenyl-chromen-7-yl)oxyethanamide]	> 155
O=C(c1ccco1)c1cc2c(ccc3ccccc32)oc1=O [2-(furan-2-ylcarbonyl)benzo[f]chromen-3-one]	> 155
CC1=CC(=C(C#N)C#N)C=C(C)N1CCN1CCNCC1 [2-[2,6-dimethyl-1-(2-piperazin-1-ylethyl)pyridin-4-ylidene]propanedinitrile]	> 155
Cc1ccc(C)n1-n1c(C)nc2scc(-c3cccs3)c2c1=O [3-(2,5-dimethyl-1-pyrrolyl)-2-methyl-5-thiophen-2-yl-4-thieno[2,3-d]pyrimidinone]	> 155
O=Cc1cn(-c2ccccc2)nc1-c1ccc(F)cc1 [3-(4-fluorophenyl)-1-phenyl-1H-pyrazole-4-carbaldehyde]	> 155
CCSc1nc(N2CCOCC2)c2c(c1C#N)CCCC2 [3-(ethylthio)-1-(4-morpholinyl)-5,6,7,8-tetrahydroisoquinoline-4-carbonitrile]	> 155
Cc1cc(/C=C(/C#N)c2cccc(F)c2)c(C)n1-c1cccnc1 [3-[2,5-dimethyl-1-(3-pyridinyl)-1H-pyrrol-3-yl]-2-(3-fluorophenyl)acrylonitrile]	> 155
O=C(O)c1cccc(N=NCc2sc(N3CCOCC3)nc2-c2ccccc2)c1 [3-[(2E)-2-[(2-morpholin-4-yl-4-phenyl-1,3-thiazol-5-yl)methylidene]hydrazinyl]benzoic acid]	> 155
O=C(O)c1cccc(NS(=O)(=O)c2ccc3c(c2)C(=O)c2ccccc2C3=O)c1 [3-[[9,10-bis(oxidanylidene)anthracen-2-yl]sulfonylamino]benzoic acid]	> 155
N#CC1C(=N)Oc2c(O)cc3ccccc3c2C1c1ccsc1 (stereo unspecified) [3-amino-5-hydroxy-1-(3-thiophenyl)-1H-benzo[f][1]benzopyran-2-carbonitrile]	> 155

The remaining lines, values ahead:

IC50 [µM]	Compound
> 155	COc1ccc(CNC(=O)c2c(C)oc3c2C(=O)c2ccccc2C3=O)cc1
> 155	COc1ccccc1-c1cc(C(F)(F)F)nc(N2CCOCC2)n1
> 155	N#Cc1c(NCCCO)nc(-c2ccco2)c2c1CCCC2
> 155	CC(N=O)c1cc(C(C)(C)C)c(O)c(C(C)(C)C)c1 (stereo unspecified)
139	CCOC(=O)C(=CC(C#N)C(=O)OCC)C(=N)N1CCN(c2ccc(OC)cc2)CC1 (stereo unspecified)
> 155	Cc1ccc(-c2cc(C(F)F)nc(N3CCOCC3)n2)cc1
> 155	CC(=O)c1cccc(Oc2cc(NN3CCCCC3)c([N+](=O)[O-])cc2[N+](=O)[O-])c1 [1-[3-[2,4-dinitro-5-(1-piperidinylamino)phenoxy]phenyl]ethanone]
> 155	CCOC(=O)C1CCCN(C(=O)c2cnn3c(C(F)F)cc(-c4ccc(C)cc4)nc23)C1 (stereo unspecified) [1-[7-(difluoromethyl)-5-(p-tolyl)pyrazolo[1,5-a]pyrimidine-3-carbonyl]nipecotic acid ethyl ester]
> 155	[O-][N+]1=c2ccc(Nc3ccccc3)cc2=NC12CCCCC2 [1-oxido-N-phenyl-5-spiro[benzimidazol-1-ium-2,1'-cyclohexane]amine]
> 155	c1cnn(-c2cncc(-n3cccn3)n2)c1 [2,6-bis(1-pyrazolyl)pyrazine]
> 155	N#Cc1c(-n2cccc2C=O)sc2c1CCCC2 [2-(2-methanoylpyrrol-1-yl)-4,5,6,7-tetrahydro-1-benzothiophene-3-carbonitrile]
> 155	CN(C)CCCN1C(=O)c2cccc3c([N+](=O)[O-])ccc(c23)C1=O [2-[3-(dimethylamino)propyl]-6-nitro-1H-benzo[de]isoquinoline-1,3(2H)-dione]
97.5	O=C(O)Cc1sc(N=NC=CCc2ccccc2)nc1O [2-[4-oxo-2-[(2E)-2-[(E)-3-phenylprop-2-enylidene]hydrazinyl]-1,3-thiazol-5-yl]acetic acid]
> 155	CCN(c1ccccc1)c1nc2nonc2nc1NCCO [2-[6-(Ethyl-phenyl-amino)-[1,2,5]oxadiazolo[3,4-b]pyrazin-5-ylamino]-ethanol]
> 155	CCOC(=O)c1c(NC(=O)COC(=O)/C=C/c2ccco2)sc2c1CC(C)(C)NC2(C)C [2-[[2-[(E)-3-(2-furanyl)-1-oxoprop-2-enoxy]-1-oxoethyl]amino]-5,5,7,7-tetramethyl-4,6-dihydrothieno[2,3-c]pyridine-3-carboxylic acid ethyl ester]
> 155	O=Cc1c(-c2ccccc2)nc2ccccn12 [2-phenyl-3-imidazo[1,2-a]pyridinecarboxaldehyde]
> 155	O=Cc1cn(-c2ccccc2)nc1-c1ccc2c(c1)OCCO2 [3-(2,3-Dihydro-benzo[1,4]dioxin-6-yl)-1-phenyl-1H-pyrazole-4-carbaldehyde]
> 155	N#CCCSc1nc(N2CCOCC2)c2c(c1C#N)CCCC2 [3-(2-cyanoethylthio)-1-(4-morpholinyl)-5,6,7,8-tetrahydroisoquinoline-4-carbonitrile]
